Several values for one entry are separate records, joined by “and”; a condition that tells them apart may be missing. Equal values may be shown once.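 96-well plates; 48 h exposure; 5 concentrations. Endpoints by linear interpolation between flanking doses. Not reached: highest tested concentration assigned. At the GI50, growth is halved. TGI is the concentration that stops growth completely.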
Tests used:
Assay in all cases: growth of human tumour cells (NCI), 48 h
ACHN renal = test system: ACHN renal
CCRF-CEM leukemia = test system: CCRF-CEM leukemia
DU-145 prostate = test system: DU-145 prostate
HS 578T breast = test system: HS 578T breast
K-562 leukemia = test system: K-562 leukemia
NCI-H522 lung = test system: NCI-H522 lung
SK-MEL-28 melanoma = test system: SK-MEL-28 melanoma
SN12C renal = test system: SN12C renal
SNB-19 CNS = test system: SNB-19 CNS
SNB-75 CNS = test system: SNB-75 CNS

| Compound | GI50 (ACHN renal) | TGI (ACHN renal) | GI50 (CCRF-CEM leukemia) | TGI (CCRF-CEM leukemia) | GI50 (DU-145 prostate) | TGI (DU-145 prostate) | GI50 (HS 578T breast) | TGI (HS 578T breast) | GI50 (K-562 leukemia) | TGI (K-562 leukemia) | GI50 (NCI-H522 lung) | TGI (NCI-H522 lung) | GI50 (SK-MEL-28 melanoma) | TGI (SK-MEL-28 melanoma) | GI50 (SN12C renal) | TGI (SN12C renal) | GI50 (SNB-19 CNS) | TGI (SNB-19 CNS) | GI50 (SNB-75 CNS) | TGI (SNB-75 CNS) |
| --- | --- | --- | --- | --- | --- | --- | --- | --- | --- | --- | --- | --- | --- | --- | --- | --- | --- | --- | --- | --- |
| COc1ccc(CCN2CCCN3C2=Nc2ccccc2S3(=O)=O)cc1 | 0.736 µM | > 100 µM | 0.444 µM | > 100 µM | 0.496 µM | > 100 µM | 0.577 µM | > 100 µM | 0.196 µM | > 100 µM | 0.278 µM | 8.86 µM | 0.805 µM | > 100 µM | 0.707 µM | > 100 µM | 0.882 µM | > 100 µM | 0.296 µM | > 100 µM |
| C=CC(=O)N1C/C(=C\c2ccccc2)C(=O)/C(=C/c2ccccc2)C1 |  | 4.53 µM | 0.927 µM | 3.55 µM |  | 15.9 µM | 2.22 µM | 14.8 µM | 0.174 µM | 4.04 µM | 0.348 µM | 3.49 µM |  | 3.78 µM |  | 3.44 µM |  | 7.12 µM |  | 10 µM |
| O=C1/C=C/[C@@H](O)[C@@H]2C[C@@H](O)C[C@H]2/C=C/CCC[C@H](CCc2ccc(C(F)(F)F)cc2)O1 | 0.41 µM | > 100 µM | 0.314 µM | 49 µM | 0.479 µM | > 100 µM | 0.0602 µM | > 27.2 µM | 0.444 µM | > 100 µM | 0.282 µM | 0.775 µM | 0.0405 µM | 0.361 µM | 0.329 µM | > 36.5 µM | 0.383 µM | > 100 µM | 0.0544 µM | 32.5 µM |
| CN1CCC(CNc2ccc3ncc(-c4cccc(OC(F)(F)F)c4)n3n2)CC1 | 2.14 µM and 3.05 µM | 6.05 µM and > 10 µM | 3.36 µM and 2.03 µM | 15.9 µM and 5.78 µM | 3.35 µM and 3.6 µM | 13.4 µM and > 10 µM | 1.66 µM and 1.63 µM | 4.5 µM and 7.17 µM | 1.65 µM and 1.7 µM | 4.95 µM and 6.01 µM | 1.64 µM and 1.52 µM | 3.33 µM and 3.57 µM | 1.55 µM and 1.61 µM | 2.99 µM and 3.14 µM | 2.14 µM and 2.3 µM | 7.14 µM and > 10 µM | 4.06 µM and 2.95 µM | 16.5 µM and > 10 µM | 1.39 µM and 1.09 µM | 4.46 µM and 8.12 µM |
| COc1ccc(-c2nsc3c2NC(=O)CC3c2ccc(F)cc2)cc1 (stereo unspecified) | 6.73 µM | > 100 µM | 5.27 µM | > 100 µM | 5.31 µM | > 100 µM | 4.48 µM | > 73.8 µM | 1.37 µM | > 100 µM | 2.52 µM | 15.6 µM | 4.74 µM | > 100 µM | > 23.4 µM | > 100 µM | 7.75 µM | > 100 µM | 2.35 µM | 15.7 µM |
| Cc1cc(C(=O)Nc2nc3cccc(Cl)c3n2[C@@H]2CCCCN(C(=O)/C=C/CN(C)C)C2)ccn1 | 0.406 µM | 16.3 µM | 12.5 µM | 56.2 µM | 6.19 µM | 45.2 µM | 9.11 µM | 37.3 µM | 9.58 µM | 61.5 µM | 0.108 µM | 14.4 µM | 12.8 µM | 27 µM | 3.51 µM | 22.2 µM | 12.9 µM | 31.2 µM | 5.63 µM | 19 µM |
| CC1=C(C(=O)Nc2ccccc2C)C(c2ccc(C3C(C(=O)Nc4ccccc4C)=C(C)NC(C)=C3C(=O)Nc3ccccc3C)cc2)C(C(=O)Nc2ccccc2C)=C(C)N1 |  | 16 µM |  | 7.82 µM |  | 32.1 µM |  | 55.3 µM |  | 25.4 µM |  | 3.72 µM |  | 4.26 µM |  | 2.85 µM |  | 29.4 µM |  | 30.9 µM |
| O=c1[nH]cc(/C=N\Nc2ccccc2)c(=O)[nH]1 |  | > 100 µM |  | > 100 µM |  | > 100 µM |  | > 100 µM |  | > 100 µM |  | > 100 µM |  | > 100 µM |  | > 100 µM |  | > 100 µM |  | > 100 µM |
| Cc1ccc2c(c1)C(C)Cc1c(ncnc1-n1cnc3cc(C)ccc31)N2C (stereo unspecified) | 0.0459 µM | 12 µM | 0.0362 µM | 17.6 µM | 0.0379 µM | 11.1 µM | 0.0459 µM | 23 µM | 0.034 µM | 16.5 µM | 0.026 µM | 0.0784 µM | 0.0743 µM | 15.8 µM | 0.086 µM | 16.3 µM | 0.0522 µM | 21.9 µM | 0.0262 µM | 13.4 µM |
| C/C1=C/C(=O)O[C@@H]2C[C@@H](CC[C@H](C)/C=C\C=C\CC1)O[C@@](O)([C@@H]1CSC(=O)N1CO)C2 | 0.0403 µM | > 100 µM | 0.0872 µM | > 41.4 µM | 0.239 µM | > 57.3 µM | 0.0174 µM | 0.0606 µM | 0.213 µM | 27.1 µM | 0.0371 µM | 2.84 µM | 0.164 µM | 0.603 µM | 0.0485 µM | > 57.4 µM | 0.0833 µM | 0.671 µM | 0.0151 µM | 0.0523 µM |
| C=C(C)[C@@H]1CC[C@]2(C(N)=O)CC[C@]3(C)[C@H](CC[C@@H]4[C@@]5(C)CC[C@H](O)C(C)(C)[C@@H]5CC[C@]43C)[C@@H]12 | 2.44 µM | 6.82 µM | 4.49 µM | > 100 µM | 3.21 µM | 10.1 µM | 5.74 µM | > 100 µM | 3.04 µM | 19.4 µM | 3.13 µM | 16.3 µM | 10.9 µM | 42.3 µM | 3 µM | 10.6 µM | 4.57 µM | 34.3 µM | 2.74 µM | 12.1 µM |
| COC(=O)[C@H]1C(=O)[C@@]2(C)[C@H]([C@H](OC(=O)c3ccccc3)[C@]3(O)C[C@H](OC(=O)[C@H](O)[C@@H](NC(=O)c4ccc(F)cc4)c4ccccc4)C(C)=C1C3(C)C)[C@]1(OC(C)=O)CO[C@@H]1C[C@@H]2O | 1.6 µM | > 25 µM | 0.00685 µM | > 8.69 µM | 0.00708 µM | 0.023 µM | 0.00363 µM | 0.0231 µM | 0.00917 µM |  | 0.0135 µM | > 7.4 µM | 0.0154 µM | 22 µM | 0.0104 µM | > 25 µM | 0.0166 µM | > 25 µM | 0.00273 µM | 0.0443 µM |
| COc1c2c3ccccc3nc-2n(C)c2ccccc12 | 3.33 µM | 19.4 µM |  |  | 9.48 µM | 45.5 µM | 42 µM | > 100 µM | 11.5 µM | > 100 µM | 49.2 µM | > 100 µM | 14.7 µM | 36.9 µM | 7.27 µM | 35.9 µM | 17.1 µM | > 100 µM | 14.1 µM | 35.4 µM |

— PubChem BioAssay (NCI)
